Values quoted from earlier work as cited in patent US20060293293A1, “Salmeterol and ciclesonide combination” (Altana Pharma AG, priority 2003, published 2006).

How the values were obtained:
[1] = compared with budesonide

CC(C)C(=O)OCC(=O)[C@@]12O[C@H](C3CCCCC3)O[C@@H]1C[C@H]1[C@@H]3CCC4=CC(=O)C=C[C@]4(C)[C@H]3[C@@H](O)C[C@@]12C [Ciclesonide, [11β,16α(R)]-16,17[(Cyclohexylmethylen)bis(oxy)]-11-hydroxy-21-(2-methyl-1-oxoprop-oxy)pregna-1,4dien-3,20-dion]
metabolism by liver oxidases (liver oxidases): very high | concentration of the drug in the lungs (lungs): high | absorption after oral administration (oral administration): only moderately absorbed | plasma half-life (plasma): low plasma half-life | anti-inflammatory activity relative to budesonide [1]: higher | systemic activity relative to budesonide [1]: three times lower
